Experiment: xn = mol fraction of the nth substance listed
Settings: 101 kPa

CCCC[n+]1ccn(C)c1.CS(=O)(=O)[O-] + O
Settings | electrical conductivity [S/m] | viscosity [mPa·s]
328.15 K, x2 = 0.796 | 3.01 | –
328.15 K, x2 = 0.861 | 5.12 | –
328.15 K, x2 = 0.892 | 6.23 | –
328.15 K, x2 = 0.929 | 7.21 | –
328.15 K, x2 = 0.968 | 7 | –
329.15 K, x1 = 0.004 | 2.04 | –
329.15 K, x1 = 0.008 | 3.67 | –
329.15 K, x1 = 0.019 | 5.81 | –
329.15 K, x2 = 0.785 | 2.9 | –
329.15 K, x2 = 0.796 | 3.05 | –
329.15 K, x2 = 0.861 | 5.25 | –
329.15 K, x2 = 0.892 | 6.26 | –
329.15 K, x2 = 0.929 | 7.35 | –
329.15 K, x2 = 0.951 | 7.83 | –
330.15 K, x1 = 0.004 | 2.09 | –
330.15 K, x1 = 0.008 | 3.72 | –
330.15 K, x1 = 0.019 | 5.88 | –
330.15 K, x2 = 0.704 | 1.84 | –
330.15 K, x2 = 0.785 | 2.98 | –
330.15 K, x2 = 0.861 | 5.37 | –
330.15 K, x2 = 0.892 | 6.36 | –
330.15 K, x2 = 0.929 | 7.5 | –
330.15 K, x2 = 0.951 | 7.95 | –
330.15 K, x2 = 0.968 | 7.38 | –
331.15 K, x1 = 0.004 | 2.13 | –
331.15 K, x1 = 0.008 | 3.77 | –
331.15 K, x2 = 0.785 | 3.04 | –
331.15 K, x2 = 0.796 | 3.2 | –
331.15 K, x2 = 0.892 | 6.46 | –
331.15 K, x2 = 0.929 | 7.61 | –
331.15 K, x2 = 0.951 | 8.05 | –
331.15 K, x2 = 0.968 | 7.39 | –
332.15 K, x1 = 0.004 | 2.15 | –
332.15 K, x1 = 0.008 | 3.83 | –
332.15 K, x1 = 0.019 | 6.06 | –
332.15 K, x2 = 0.704 | 1.99 | –
332.15 K, x2 = 0.785 | 3.13 | –
332.15 K, x2 = 0.796 | 3.29 | –
332.15 K, x2 = 0.861 | 5.61 | –
332.15 K, x2 = 0.892 | 6.57 | –
332.15 K, x2 = 0.968 | 7.57 | –
333.15 K, x1 = 0.004 | 2.17 | –
333.15 K, x1 = 0.008 | 3.78 | –
333.15 K, x1 = 0.019 | 6.17 | –
333.15 K, x2 = 0.5596 | – | 14
333.15 K, x2 = 0.6542 | – | 9.62
333.15 K, x2 = 0.704 | 2.04 | –
333.15 K, x2 = 0.7495 | – | 6.25
333.15 K, x2 = 0.785 | 3.21 | –
333.15 K, x2 = 0.796 | 3.36 | –
333.15 K, x2 = 0.8521 | – | 3.29
333.15 K, x2 = 0.861 | 5.75 | –
333.15 K, x2 = 0.892 | 6.73 | –
333.15 K, x2 = 0.9254 | – | 1.742
333.15 K, x2 = 0.929 | 7.9 | –
333.15 K, x2 = 0.951 | 8.3 | –
333.15 K, x2 = 0.975 | – | 0.79
334.15 K, x1 = 0.004 | 2.18 | –
334.15 K, x1 = 0.008 | 3.93 | –
334.15 K, x1 = 0.019 | 6.35 | –
334.15 K, x2 = 0.704 | 2.12 | –
334.15 K, x2 = 0.785 | 3.28 | –
334.15 K, x2 = 0.796 | 3.43 | –
334.15 K, x2 = 0.861 | 5.94 | –
334.15 K, x2 = 0.892 | 6.95 | –
334.15 K, x2 = 0.929 | 8.03 | –
334.15 K, x2 = 0.951 | 8.46 | –
335.15 K, x1 = 0.008 | 3.98 | –
335.15 K, x1 = 0.019 | 6.33 | –
335.15 K, x2 = 0.704 | 2.17 | –
335.15 K, x2 = 0.785 | 3.35 | –
335.15 K, x2 = 0.796 | 3.52 | –
335.15 K, x2 = 0.861 | 5.97 | –
335.15 K, x2 = 0.892 | 7.12 | –
335.15 K, x2 = 0.929 | 8.18 | –
335.15 K, x2 = 0.951 | 8.59 | –
335.15 K, x2 = 0.968 | 7.93 | –
336.15 K, x1 = 0.008 | 4.04 | –
336.15 K, x1 = 0.019 | 6.42 | –
336.15 K, x2 = 0.704 | 2.19 | –
336.15 K, x2 = 0.785 | 3.42 | –
336.15 K, x2 = 0.796 | 3.59 | –
336.15 K, x2 = 0.861 | 6.09 | –
336.15 K, x2 = 0.892 | 7.28 | –
336.15 K, x2 = 0.929 | 8.3 | –
336.15 K, x2 = 0.968 | 8.02 | –
337.15 K, x1 = 0.004 | 2.29 | –
337.15 K, x1 = 0.008 | 4.1 | –
337.15 K, x1 = 0.019 | 6.53 | –
337.15 K, x2 = 0.704 | 2.3 | –
337.15 K, x2 = 0.785 | 3.52 | –
337.15 K, x2 = 0.892 | 7.41 | –
337.15 K, x2 = 0.951 | 8.9 | –
337.15 K, x2 = 0.968 | 8.19 | –
338.15 K, x1 = 0.004 | 2.31 | –
338.15 K, x1 = 0.008 | 4.15 | –
338.15 K, x2 = 0.704 | 2.35 | –
338.15 K, x2 = 0.892 | 7.53 | –
338.15 K, x2 = 0.929 | 8.57 | –
338.15 K, x2 = 0.968 | 8.14 | –
339.15 K, x1 = 0.004 | 2.35 | –
339.15 K, x1 = 0.008 | 4.19 | –
339.15 K, x1 = 0.019 | 6.73 | –
339.15 K, x2 = 0.704 | 2.42 | –
339.15 K, x2 = 0.785 | 3.67 | –
339.15 K, x2 = 0.796 | 3.85 | –
339.15 K, x2 = 0.861 | 6.47 | –
339.15 K, x2 = 0.892 | 7.69 | –
339.15 K, x2 = 0.929 | 8.73 | –
339.15 K, x2 = 0.951 | 9.11 | –
340.15 K, x1 = 0.004 | 2.39 | –
340.15 K, x1 = 0.008 | 4.25 | –
340.15 K, x1 = 0.019 | 6.83 | –
340.15 K, x2 = 0.704 | 2.47 | –
340.15 K, x2 = 0.785 | 3.75 | –
340.15 K, x2 = 0.796 | 3.93 | –
340.15 K, x2 = 0.861 | 6.6 | –
340.15 K, x2 = 0.892 | 7.77 | –
340.15 K, x2 = 0.929 | 8.85 | –
340.15 K, x2 = 0.951 | 9.22 | –
340.15 K, x2 = 0.968 | 8.56 | –
341.15 K, x1 = 0.004 | 2.42 | –
341.15 K, x1 = 0.008 | 4.29 | –
341.15 K, x1 = 0.019 | 6.96 | –
341.15 K, x2 = 0.704 | 2.54 | –
341.15 K, x2 = 0.785 | 3.84 | –
341.15 K, x2 = 0.796 | 4.07 | –
341.15 K, x2 = 0.861 | 6.71 | –
341.15 K, x2 = 0.929 | 9.03 | –
341.15 K, x2 = 0.951 | 9.15 | –
341.15 K, x2 = 0.968 | 8.57 | –
342.15 K, x1 = 0.008 | 4.35 | –
342.15 K, x1 = 0.019 | 6.93 | –
342.15 K, x2 = 0.704 | 2.61 | –
342.15 K, x2 = 0.796 | 4.11 | –
342.15 K, x2 = 0.929 | 9.18 | –
342.15 K, x2 = 0.951 | 9.55 | –
342.15 K, x2 = 0.968 | 8.66 | –
343.15 K, x1 = 0.008 | 4.38 | –
343.15 K, x1 = 0.019 | 7.17 | –
343.15 K, x2 = 0.5596 | – | 10.6
